Laboratory results reported in patent publication EP0499337A1, “Use of tetra:hydro-thieno-pyrido-indole derivatives for the treatment of skin disorders” (YAMANOUCHI EUROPE B.V., priority 1991, dated 1992).
Where two headings read alike, the source gives them in different places.

Tests used:
SVK₁₄ = experiment: Keratinocyte proliferation, neutral red assay (number of viable attached cells); assay type: cell-based; settings: Homo sapiens
Procedure: (§1) On day 0, 5,000 cells in 100 µl were plated per well in a 96-well cluster plate (Greiner), either in the medium as stated above, or in MCDB153 medium (Clonetics) under low calcium conditions. On day 1 100 µl medium containing increasing concentrations of test agents were added to each well. On day 4, 50 µl of 0.05% neutral red (Gurr) solution in 0.9% NaCl was added per well and the cells were reincubated for 3 h at 37°C. After washing with PBS, the cells were lyzed by addition of 100 µl of 50% ethanol in 0.05 M NaH₂PO₄ per well. After vigorous shaking, the optical extinction was measured at 550 nm. […] Meth., 9: 7). All determinations were performed in octuple. IC₅₀-values (the concentration inhibiting cell numbers by 50%) were determined (µM).

NHEK = experiment: as above; assay type: cell-based; settings: Homo sapiens, Ca²⁺ concentration low (0.06 mM), read-out: keratinocyte proliferation IC₅₀ values
Procedure: as §1

rat brain synaptosomes = experiment: Noradrenaline release from permeated synaptosomes; assay type: cell-based; settings: 100 µM to 1 µM; low (10 nM) and high (10 µM) Ca²⁺
Procedure: Highly purified synaptosomes were prepared according to Dunkley and Robinson (1987). The synaptosomes were diluted with 3 ml buffer A (123 mM NaCl, 5 mM KCl, 2 mM CaCl₂, […], 1.15 mM NaH₂PO₄, 5.6 mM glucose, 20 mM PIPES pH 6.8, gassed with O₂:CO₂, 95:5) and incubated for 15 min at 37°C. Then 2.5 µCi noradrenalin (NA) was added, incubation was continued for 15 min and the synaptosomes were centrifuged for 20 min at 600 x g. The resulting pellet was washed twice in buffer A without CaCl₂ and resuspended (1 mg protein/ml).
For measurement of NA release, prelabeled synaptosomes were incubated at 37°C in buffer A containing Na₂ATP and EGTA-buffered Ca²⁺ in concentrations as indicated (final volume 120 µl). The release reaction was started by adding synaptosomes (20 µg protein) to the reaction mixture and terminated after 5 min by 30 sec centrifugation at 10,000 x g. The supernatant (90 µl) was collected and counted in a Packard Model 2,000 CA liquid scintillation counter with Picofluor as a scintillation cocktail. NA release was expressed as % of total [³H]-NA incorporated. Total NA incorporation was determined by measuring [³H]-incorporation in 20 µg prelabeled washed synaptosomes.

HaCaT cells [1] = experiment: Keratinocyte morphology, phase contrast microscopy; assay type: cell-based, human; settings: 10 µM, monitored during 72 hours
Procedure: HaCaT cells were cultured under standard conditions. 24 h after plating (2.5 x 10⁶ cells) the medium was replaced by medium containing the test compounds. During 72 hours cell morphology was frequently monitored using a phase contrast photomicroscope (Olympus IMT-2, Tokyo, Japan).

[2] = test system: TPA-induced edema and hyperproliferation in mouse skin; experiment: Topical application, TPA-induced edema and hyperproliferation in mouse skin; assay type: in vivo, Hairless mice (hr/hr; male); settings: with 0.01 wt% TPA
Procedure: Hairless mice (hr/hr; male) were treated on their backs with 10 µl of a 0.01 wt% solution of 12-O-tetradecanoylphorbol-13-acetate (TPA) in a 80/20 mixture of acetone/water, further containing the test substances cyclosporin A, sphingosine or tiflucarbine. Per mouse, 4 application sites were used: one application site was treated with only TPA (control) and one with only vehicle (blanco), two with experimental formulations, according to a roulation scheme. 6 mice were treated per experiment. Skin fold thickness was determined before treatment (t=0) and 6 and 24 h after treatment, as a measure of edema. After 72 h the epidermis (15 mm punch biopsy) was separated with 2 M KBr and dissolved in 0.1 M NaOH for determination of the amount of protein, as a measure of hyperproliferation. In one experiment tiflucarbine was compared with cyclosporin A, in a second experiment with sphingosine.

PMHL = experiment: Nonspecific cytotoxicity, trypane blue exclusion test; assay type: cell-based, human
Procedure: Nonspecific cytotoxicity of the test compounds on PMHL was assessed by […] blue exclusion test.

HaCaT cells [3] = test system: HaCaT cells
Procedure: HaCaT cells were grown as described.
Cytotoxicity was assessed by measurements of the content of intracellular lactate dehydrogenase (LDH) activity released into the culture medium during 48 h after onset of drug exposure. Possible drug induced detachment of the HaCaT cells from the plate was assessed by collection of the medium from the wells and centrifugation (80 x g, 10 min.) The resulting pellet was suspended in 10 µl medium and cells were counted in a haemocytometer.

[4] = test system: PKC from the central nervous system; experiment: Phosphorylation of synaptosomal plasma membranes: B-50 phosphorylation; assay type: biochemical; settings: for phosphorylation of B-50 (% of control): without addition of CaM
Procedure: Subcellular fractionation and phosphorylation assay were performed according to Kristjansson et al., (1982). […] After a preincubation at 30°C for 5 min, the phosphorylation reaction was started by adding the ATP. The reaction was stopped after 15 sec. All compounds to be tested were present at the start of the preincubation. […]

calmodulin = calmodulin (Homo sapiens, UniProt P0DP23); settings: Schmidt et al. (1990); cited from earlier work
[5] = test system: TPA-induced ear edema in mice; experiment: Intraperitoneal administration, TPA-induced ear edema in mice; assay type: in vivo; settings: intraperitoneally, 30 mg/kg, 3 h after challenge
Procedure: Mice were injected intraperitoneally with 30, 10 or 3.3 mg/kg body weight of the test substances, sphingosine in carboxymethylcellulose (0.5%) and tiflucarbine in physiologic Saline, 10 ml/kg body weight. After 60 minutes the mire were challenged on the left ear with a 0.01 wt% solution of 12-O-tetradecanoylphorbol-13-acetate (TPA) in a 80/20 mixture of acetone/water. At 0, 3, 6 and 24 h after challenge, ear thickness was determined.

CCN1CCc2[nH]c3cc(F)c4scc(C)c4c3c2C1 [Tiflucarbine, 1-methyl-9-ethyl-4-fluoro-7,8,9,10-tetra:hydro-thieno-[3,2-e]-pyrido-[4,3-b]-indole lactate]
IC50 (SVK₁₄; SVK₁₄, Ca²⁺ concentration normal (1.6 mM), read-out: keratinocyte proliferation IC₅₀ values): 12.5 µM
IC50 (SVK₁₄; read-out: keratinocyte proliferation IC₅₀ values, SVK₁₄, Ca²⁺ concentration low (0.06 mM)): 7.5 µM
IC50 (NHEK): 10 µM
noradrenaline release (rat brain synaptosomes): did not display any significant effects
effect on morphology (HaCaT cells [1]): no effect
edema (skin fold thickness) ([2]; 6 and 24 h after treatment): reduces edema at 0.5, 1 and 2.5%
hyperproliferation (amount of epidermal protein) ([2]; after 72 h): reduces hyperproliferation only at 1 and 2.5%
Trypane blue (PMHL): 300 µM
toxic concentration (HaCaT cells [3]): above 300 µM
B-50 phosphorylation ([4]; in the presence of exogenous CaM (3 units/assay)): did not inhibit B-50 phosphorylation
phosphorylation of B-50 (% of control) ([4]; concentration 1 µM): 82 ± 14 % of control
phosphorylation of B-50 (% of control) ([4]; concentration 10 µM): 110 ± 15 % of control
phosphorylation of B-50 (% of control) ([4]; concentration 100 µM): 92 ± 9 % of control
phosphorylation of B-50 (% of control) ([4]; concentration l mM): 95 ± 11 % of control
binding to calmodulin (calmodulin): bind to calmodulin
ear edema (ear thickness) [5]: reduced ear edema
